{"source": "ChEMBL document CHEMBL3596187", "about": "“Design and synthesis of membrane-targeting antibiotics: from peptides- to aminosugar-based antimicrobial cationic amphiphiles” (2014)", "type_in_all_cases": "functional", "key": {"Klebsiella pneumoniae": {"tested_on": "Klebsiella pneumoniae", "test": "Antimicrobial activity against Klebsiella pneumoniae after 18 to 24 hrs by geometric microdilution method"}, "Acinetobacter lwoffii": {"tested_on": "Acinetobacter lwoffii", "test": "Antimicrobial activity against Acinetobacter lwoffii after 18 to 24 hrs by geometric microdilution method"}, "Escherichia coli": {"tested_on": "Escherichia coli", "test": "Antimicrobial activity against Escherichia coli after 18 to 24 hrs by geometric microdilution method"}, "Pseudomonas aeruginosa": {"tested_on": "Pseudomonas aeruginosa", "test": "Antimicrobial activity against Pseudomonas aeruginosa after 18 to 24 hrs by geometric microdilution method"}, "Staphylococcus": {"tested_on": "Staphylococcus", "test": "Antimicrobial activity against Staphylococci"}, "[1]": {"tested_on": "Porphyromonas cangingivalis", "test": "Antimicrobial activity against protease-positive Porphyromonas cangingivalis by agar dilution method"}, "[2]": {"tested_on": "Porphyromonas circumdentaria", "test": "Antimicrobial activity against protease-positive Porphyromonas circumdentaria by agar dilution method"}, "Streptococcus mutans": {"tested_on": "Streptococcus mutans", "test": "Antimicrobial activity against Streptococcus mutans by agar dilution method"}, "Porphyromonas gingivalis": {"tested_on": "Porphyromonas gingivalis", "test": "Antimicrobial activity against protease-positive Porphyromonas gingivalis by agar dilution method"}}}
{"smiles": "NC[C@H]1O[C@H](O[C@H]2[C@H](O)[C@@H](OCc3ccc4ccccc4c3)[C@H](N)C[C@@H]2N)[C@H](N)[C@@H](OCc2ccc3ccccc3c2)[C@@H]1OCc1ccc2ccccc2c1", "values": [{"measurement": "MIC", "setting": "Klebsiella pneumoniae", "value": 2, "unit": "µg/mL"}, {"measurement": "MIC", "setting": "Acinetobacter lwoffii", "value": 2, "unit": "µg/mL"}, {"measurement": "MIC", "setting": "Escherichia coli", "value": 2, "unit": "µg/mL"}, {"measurement": "MIC", "setting": "Pseudomonas aeruginosa", "value": 2, "unit": "µg/mL"}]}
{"smiles": "CCN(CC)CCCCOc1cc2oc3cc(OCCCCN(CC)CC)c(OC)c(CC=C(C)C)c3c(=O)c2c(O)c1CC=C(C)C", "values": [{"measurement": "MIC", "setting": "Staphylococcus", "value": 0.095, "unit": "µg/mL"}]}
{"smiles": "CCCCCCCCNCCC[C@@H](C)[C@H]1CC[C@H]2[C@@H]3[C@H](OCCCN)C[C@@H]4C[C@H](OCCCN)CC[C@]4(C)[C@H]3C[C@H](OCCCN)[C@]12C", "values": [{"measurement": "MIC", "setting": "[1]", "value": 2, "unit": "µg/mL"}, {"measurement": "MIC", "setting": "[2]", "value": 1, "unit": "µg/mL"}, {"measurement": "MIC", "setting": "Streptococcus mutans", "value": 1, "unit": "µg/mL"}, {"measurement": "MIC", "setting": "Porphyromonas gingivalis", "value": 2, "unit": "µg/mL"}]}
